Measured values taken from ChEMBL document CHEMBL1136397, “5-Aryl thiazolidine-2,4-diones as selective PPARgamma agonists” (Bioorg Med Chem Lett, 2003).

What was measured:
[1] = biological target: T1, Peroxisome proliferator-activated receptor gamma (Homo sapiens, UniProt P37231)
T1 sequence (P37231 whole entry): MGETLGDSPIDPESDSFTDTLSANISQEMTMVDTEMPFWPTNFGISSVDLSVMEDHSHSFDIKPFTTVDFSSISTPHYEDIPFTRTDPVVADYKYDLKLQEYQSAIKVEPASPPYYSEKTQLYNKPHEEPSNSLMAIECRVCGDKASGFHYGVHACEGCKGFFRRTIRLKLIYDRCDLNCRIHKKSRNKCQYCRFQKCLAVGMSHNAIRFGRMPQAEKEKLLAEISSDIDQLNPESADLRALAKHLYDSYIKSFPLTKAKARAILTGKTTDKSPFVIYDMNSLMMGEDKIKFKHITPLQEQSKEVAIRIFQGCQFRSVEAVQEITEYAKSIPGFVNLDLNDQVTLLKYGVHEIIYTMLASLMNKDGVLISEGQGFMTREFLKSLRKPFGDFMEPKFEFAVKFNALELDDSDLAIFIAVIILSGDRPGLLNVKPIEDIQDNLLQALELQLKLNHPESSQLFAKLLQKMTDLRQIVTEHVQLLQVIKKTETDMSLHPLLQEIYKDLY
Description: In vitro binding affinity against human PPAR gamma (peroxisome proliferator-activated gamma receptor)

[2] = biological target: T2, Peroxisome proliferator-activated receptor delta (Homo sapiens, UniProt Q03181)
T2 sequence (Q03181 whole entry): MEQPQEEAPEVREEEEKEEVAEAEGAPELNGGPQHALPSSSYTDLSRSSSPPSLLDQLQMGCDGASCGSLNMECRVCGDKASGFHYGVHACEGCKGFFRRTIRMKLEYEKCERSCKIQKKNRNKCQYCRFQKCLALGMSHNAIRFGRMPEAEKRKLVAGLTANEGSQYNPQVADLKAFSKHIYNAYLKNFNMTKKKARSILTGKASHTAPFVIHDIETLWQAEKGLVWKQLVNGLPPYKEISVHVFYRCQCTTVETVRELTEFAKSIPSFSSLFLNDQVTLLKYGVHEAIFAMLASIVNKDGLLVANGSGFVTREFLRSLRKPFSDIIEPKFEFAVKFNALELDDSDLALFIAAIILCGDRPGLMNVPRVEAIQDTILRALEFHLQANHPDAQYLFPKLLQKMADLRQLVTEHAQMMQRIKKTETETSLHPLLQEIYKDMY
Description: In vitro binding affinity against human PPAR delta (peroxisome proliferator-activated delta receptor)

[3] = biological target: T3, Peroxisome proliferator-activated receptor alpha (Homo sapiens, UniProt Q07869); assay: In vitro binding affinity against human PPAR alpha (peroxisome proliferator-activated alpha receptor)
T3 sequence (Q07869 whole entry): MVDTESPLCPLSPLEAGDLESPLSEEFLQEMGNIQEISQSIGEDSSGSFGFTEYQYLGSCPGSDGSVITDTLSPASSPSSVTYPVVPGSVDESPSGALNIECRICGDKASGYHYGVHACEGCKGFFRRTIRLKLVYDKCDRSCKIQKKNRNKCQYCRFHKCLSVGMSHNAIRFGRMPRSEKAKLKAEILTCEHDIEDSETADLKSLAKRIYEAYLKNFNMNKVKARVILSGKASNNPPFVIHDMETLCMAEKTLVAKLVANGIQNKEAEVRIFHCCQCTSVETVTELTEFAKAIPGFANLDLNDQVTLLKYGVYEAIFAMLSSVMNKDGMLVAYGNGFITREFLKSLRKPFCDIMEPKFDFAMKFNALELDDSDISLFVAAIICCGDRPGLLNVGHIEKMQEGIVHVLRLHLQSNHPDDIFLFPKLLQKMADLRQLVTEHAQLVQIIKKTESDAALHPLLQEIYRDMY

[4] = biological target: T3, Peroxisome proliferator-activated receptor alpha; assay: In vitro agonist activity tested for transactivation in human PPAR alpha-Gal4 chimeric COS-1 cells; type: functional, cell-based
Rattus norvegicus [5] = assay: Dose-normalized AUC was determined in rat after peroral administration (2 mg/kg); type: ADME, organism-based; conditions: in vivo, po
[6] = Half-life was determined in rat after intravenous administration (0.5 mg/kg); type: ADME, organism-based; conditions: in vivo
Rattus norvegicus [7] = assay: (§1) Plasma clearance was determined in rat after intravenous administration (0.5 mg/kg); type: functional, organism-based
[8] = biological target: T2, Peroxisome proliferator-activated receptor delta; remark: listed apart in the source
Description: In vitro agonist activity tested for transactivation in human PPAR delta-GAL4 chimeric COS-1 cells

Mus musculus [9] = assay: In vivo triglyceride correction was determined in male db/db mice after administration at 5 mg/kg; type: functional
Mus musculus [10] = assay: In vivo glucose correction was determined in male db/db mice after administration at 5 mg/kg; type: functional
[11] = biological target: T1, Peroxisome proliferator-activated receptor gamma; remark: listed apart in the source
Description: In vitro agonist activity tested for transactivation in human PPAR gamma-Gal4 chimeric COS-1 cells

[12] = In vivo glucose correction was determined in male db/db mice after administration at 10 mg/kg; type: functional, Mus musculus
[13] = In vivo triglyceride correction was determined in male db/db mice after administration at 10 mg/kg; type: functional, Mus musculus
[14] = Oral bioavailability in rat (dose 2 mg/kg); type: ADME, organism-based; conditions: in vivo
[15] = as §1; type: ADME, organism-based; conditions: read-out: Clp

| IC50 [1] | IC50 [2] | IC50 [3] | EC50 [11] | SMILES | EC50 [4] | AUC (Rattus norvegicus [5]) | half-life [6] | CL (mL.min-1.kg-1) (Rattus norvegicus [7]) | EC50 [8] | Triglyceride correction (Mus musculus [9]) | Glucose correction (Mus musculus [10]) | Glucose correction [12] | Triglyceride correction [13] | bioavailability [14] | clearance [15] |
| --- | --- | --- | --- | --- | --- | --- | --- | --- | --- | --- | --- | --- | --- | --- | --- |
| 0.18 µM | > 50 µM | > 50 µM | – | CCCc1cc(Oc2ccc(C3CCCC3)cc2)ccc1OCCCOc1ccc(C2SC(=O)NC2=O)cc1 (stereo unspecified) | – | – | – | – | – | – | – | – | – | – | – |
| – | – | – | – | CN(CCOc1ccc(CC2SC(=O)NC2=O)cc1)c1ccccn1 (stereo unspecified) [ROSIGLITAZONE] | – | 16.4 µM·h | 1.2 h | – | – | 52% | 46% | – | – | 85% | 2.7 mL/min/kg |
| 0.43 µM | 0.88 µM | > 50 µM | 0.7 µM | CCCc1cc(Oc2ccccc2)ccc1OCCCOc1ccc(C2SC(=O)NC2=O)cc1Cl (stereo unspecified) | > 3 µM | – | – | – | > 3 µM | – | – | – | – | – | – |
| 0.13 µM | > 50 µM | > 50 µM | 0.03 µM | CCCc1cc(Oc2ccc(CC(C)C)cc2)ccc1OCCCOc1ccc(C2SC(=O)NC2=O)cc1 (stereo unspecified) | > 3 µM | – | – | – | > 3 µM | – | – | – | – | – | – |
| 2 µM | > 50 µM | > 50 µM | – | CCCc1cc(Oc2ccc(NS(C)(=O)=O)cc2)ccc1OCCCOc1ccc(C2SC(=O)NC2=O)cc1 (stereo unspecified) | – | – | – | – | – | – | – | – | – | – | – |
| 0.13 µM | > 50 µM | > 50 µM | 0.02 µM | CCCc1cc(Oc2ccc(-c3ccccc3)cc2)ccc1OCCCOc1ccc(C2SC(=O)NC2=O)cc1 (stereo unspecified) | > 3 µM | 0.7 µM·h | 2.2 h | – | > 3 µM | – | – | – | – | 6% | 2.8 mL/min/kg |
| 1.8 µM | > 50 µM | > 50 µM | – | CCCc1cc(Oc2ccc(C(F)(F)F)cc2)ccc1OCCCOc1ccc(C2SC(=O)NC2=O)cc1 (stereo unspecified) | – | – | – | – | – | – | – | – | – | – | – |
| 1 µM | > 10 µM | > 50 µM | 0.4 µM | CCCc1cc(Oc2ccccc2)ccc1OCCCOc1ccc(C2SC(=O)NC2=O)cc1OC (stereo unspecified) | > 3 µM | – | – | – | > 3 µM | – | – | – | – | – | – |
| 2.6 µM | > 50 µM | > 50 µM | – | CCCc1cc(Oc2ccc(C)cc2)ccc1OCCCOc1ccc(C2SC(=O)NC2=O)cc1 (stereo unspecified) | – | – | – | – | – | – | – | – | – | – | – |
| – | 0.16 µM | 0.34 µM | – | CC(C)Cc1cc(Oc2ccccc2)ccc1OCCCOc1ccc(C2SC(=O)NC2=O)cc1 (stereo unspecified) | – | – | – | – | – | – | – | – | – | – | – |
| > 15 µM | > 50 µM | > 50 µM | – | O=C1NC(=O)C(c2ccc(OCCCOc3ccc(Oc4ccccc4)cc3)cc2)S1 (stereo unspecified) | – | – | – | – | – | – | – | – | – | – | – |
| 0.12 µM | 1 µM | > 50 µM | 0.2 µM | CCCc1cc(Oc2ccccc2)ccc1OCCCOc1ccc(C2SC(=O)NC2=O)cc1CCC (stereo unspecified) | > 3 µM | – | – | – | 3 µM | – | – | – | – | – | – |
| 6.7 µM | 6 µM | > 50 µM | 0.1 µM | CCCc1cc(Oc2ccccc2)ccc1OCCCOc1ccc(C2SC(=O)NC2=O)cc1C (stereo unspecified) | > 3 µM | – | – | – | > 3 µM | – | – | – | – | – | – |
| 5.7 µM | > 50 µM | > 50 µM | 0.5 µM | CCCc1cc(Oc2ccc(NS(=O)(=O)c3ccc(C)cc3)cc2)ccc1OCCCOc1ccc(C2SC(=O)NC2=O)cc1 (stereo unspecified) | > 3 µM | – | – | – | > 3 µM | – | – | – | – | – | – |

| SMILES | IC50 [1] | IC50 [2] | IC50 [3] | EC50 [11] | EC50 [4] | AUC (Rattus norvegicus [5]) | half-life [6] | CL (mL.min-1.kg-1) (Rattus norvegicus [7]) | EC50 [8] | Triglyceride correction (Mus musculus [9]) | Glucose correction (Mus musculus [10]) | Glucose correction [12] | Triglyceride correction [13] | bioavailability [14] | clearance [15] |
| --- | --- | --- | --- | --- | --- | --- | --- | --- | --- | --- | --- | --- | --- | --- | --- |
| CCCc1cc(Oc2ccc(S(C)(=O)=O)cc2)ccc1OCCCOc1ccc(C2SC(=O)NC2=O)cc1 (stereo unspecified) | 0.25 µM | > 50 µM | > 50 µM | 0.12 µM | > 3 µM | 11.8 µM·h | 2.8 h | 2.1 | > 3 µM | 55% | 62% | 86% | 78% | 84% | – |
| CCCc1cc(Oc2ccccc2)ccc1OCCCOc1ccc(C2SC(=O)NC2=O)cc1F (stereo unspecified) | – | 2 µM | – | 0.3 µM | > 3 µM | 7.43 µM·h | 1.7 h | – | > 3 µM | – | – | 43% | 50% | 63% | 2.9 mL/min/kg |
| CCCc1cc(Oc2ccc(Cl)cc2)ccc1OCCCOc1ccc(C2SC(=O)NC2=O)cc1 (stereo unspecified) | 2 µM | > 50 µM | > 50 µM | 0.08 µM | 3 µM | 6.7 µM·h | 5.4 h | – | > 3 µM | – | – | 86% | 80% | 58% | 2.9 mL/min/kg |
| CCCc1cc(Oc2ccccc2)ccc1OCCCOc1ccc(C2SC(=O)NC2=O)cc1 (stereo unspecified) | – | > 10 µM | 50 µM | – | > 3 µM | 13.8 µM·h | 2.3 h | – | > 3 µM | – | – | 77% | 74% | 89% | 2.3 mL/min/kg |
| CCCc1cc(Oc2ccc(OC)cc2)ccc1OCCCOc1ccc(C2SC(=O)NC2=O)cc1 (stereo unspecified) | 0.46 µM | > 50 µM | > 50 µM | – | > 10 µM | 11.7 µM·h | 2.8 h | – | > 3 µM | – | – | 67% | 67% | 39% | 1.1 mL/min/kg |
| CCCc1cc(Oc2ccccc2)ccc1OCCCCOc1ccc(C2SC(=O)NC2=O)cc1 (stereo unspecified) | 3 µM | > 10 µM | > 50 µM | – | > 3 µM | – | – | – | > 3 µM | – | – | – | – | – | – |
| CCCc1cc(Oc2ccc(F)cc2)ccc1OCCCOc1ccc(C2SC(=O)NC2=O)cc1 (stereo unspecified) | – | > 50 µM | > 50 µM | – | > 50 µM | 5.97 µM·h | 2.1 h | – | > 50 µM | – | – | 78% | 71% | 63% | 3.6 mL/min/kg |
